Results as given in PubChem BioAssay AID248 (DTP/NCI, 2004).
Values joined by “and” are separate entries in the source; they are usually repeats but may differ in a detail not shown here. Equal values may be shown once. Toxic doses and inconclusive results are not listed.

Test system: L1210 leukemia ip in BDF1 mice, survival T/C
Test: NCI In Vivo Anticancer Drug Screen. Data for tumor model L1210 Leukemia (intraperitoneal) in B6D2F1 (BDF1) mice
Details: endpoint: mean survival time, higher = longer survival
Outline: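 Mice bearing the transplanted tumor received compound or vehicle. Survival of the treated group was divided by that of the vehicle-treated control group to give the ratio.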

## O=C(Nc1ccc(C2=NCCN2)cc1)c1ccc(C(=O)Nc2ccc(C3=NCCN3)cc2)c(Cl)c1
dose: 1.8 mg/kg/injection, schedule: Q01DX009 (ip), vehicle: Klucel (hydroxypropylcellulose) (HPC)
  T/C: 100 % of control and 105 % of control
dose: 2.0 mg/kg/injection, schedule: Q01DX010 (ip), vehicle: other
  T/C: 94 % of control and 101 % of control
dose: 2.0 mg/kg/injection, schedule: Q01DX Z (ip), vehicle: saline
  T/C: 103 % of control
dose: 2.0 mg/kg/injection, schedule: Q01DX Z (sc), vehicle: carboxymethylcellulose (CMC)
  T/C: 110 % of control
dose: 2.5 mg/kg/injection, schedule: Q04DX002 (ip), vehicle: Klucel (hydroxypropylcellulose) (HPC)
  T/C: 95 % of control
dose: 3.0 mg/kg/injection, schedule: Q03DX Z (ip), vehicle: saline
  T/C: 114 % of control
dose: 3.5 mg/kg/injection, schedule: Q01DX009 (ip), vehicle: Klucel (hydroxypropylcellulose) (HPC)
  T/C: 107 % of control and 115 % of control
dose: 4.0 mg/kg/injection, schedule: Q01DX010 (ip), vehicle: other
  T/C: 107 % of control and 117 % of control
dose: 4.0 mg/kg/injection, schedule: Q01DX Z (sc), vehicle: carboxymethylcellulose (CMC)
  T/C: 110 % of control
dose: 5.0 mg/kg/injection, schedule: Q04DX002 (ip), vehicle: Klucel (hydroxypropylcellulose) (HPC)
  T/C: 95 % of control
dose: 6.0 mg/kg/injection, schedule: Q03DX Z (ip), vehicle: saline
  T/C: 118 % of control
dose: 6.7 mg/kg/injection, schedule: Q01DX010 (ip), vehicle: other
  T/C: 124 % of control
dose: 6.7 mg/kg/injection, schedule: Q01DX015 (ip), vehicle: carboxymethylcellulose (CMC)
  T/C: 116 % of control
dose: 7.8 mg/kg/injection, schedule: Q02DX010 (ip), vehicle: carboxymethylcellulose (CMC)
  T/C: 117 % of control
dose: 8.0 mg/kg/injection, schedule: Q01DX Z (ip), vehicle: saline
  T/C: 188 % of control
dose: 10.0 mg/kg/injection, schedule: Q01DX015 (ip), vehicle: carboxymethylcellulose (CMC)
  T/C: 119 % of control
dose: 11.0 mg/kg/injection, schedule: Q02DX010 (ip), vehicle: carboxymethylcellulose (CMC)
  T/C: 181 % of control
dose: 12.5 mg/kg/injection, schedule: Q02DX004 (im), vehicle: olive oil, sesame oil, peanut oil
  T/C: 116 % of control and 119 % of control
dose: 13.0 mg/kg/injection, schedule: Q## X004 (ip), vehicle: carboxymethylcellulose (CMC)
  T/C: 105 % of control and 106 % of control
dose: 15.0 mg/kg/injection, schedule: Q01DX010 (ip), vehicle: other
  T/C: 166 % of control
dose: 15.0 mg/kg/injection, schedule: Q01DX015 (ip), vehicle: carboxymethylcellulose (CMC)
  T/C: 169 % of control and 171 % of control
dose: 16.0 mg/kg/injection, schedule: Q01DX010 (ip), vehicle: water
  T/C: 156 % of control
dose: 16.0 mg/kg/injection, schedule: Q01DX Z (ip), vehicle: saline
  T/C: 173 % of control
dose: 17.4 mg/kg/injection, schedule: Q02DX008 (ip), vehicle: carboxymethylcellulose (CMC)
  T/C: 121 % of control
dose: 20.0 mg/kg/injection, schedule: Q01DX001 (ip), vehicle: saline
  T/C: 114 % of control
dose: 20.0 mg/kg/injection, schedule: Q## X004 (ip), vehicle: carboxymethylcellulose (CMC)
  T/C: 103 % of control and 114 % of control
dose: 22.5 mg/kg/injection, schedule: Q01DX010 (ip), vehicle: other
  T/C: 178 % of control
dose: 24.0 mg/kg/injection, schedule: Q02DX010 (ip), vehicle: carboxymethylcellulose (CMC)
  T/C: 168 % of control
dose: 25.0 mg/kg/injection, schedule: Q01DX001 (im), vehicle: steriod suspending solution
  T/C: 103 % of control
dose: 26.0 mg/kg/injection, schedule: Q02DX008 (ip), vehicle: carboxymethylcellulose (CMC)
  T/C: 168 % of control
dose: 26.0 mg/kg/injection, schedule: Q02DX010 (ip), vehicle: carboxymethylcellulose (CMC)
  T/C: 169 % of control and 182 % of control
dose: 28.0 mg/kg/injection, schedule: Q07DX Z (ip), vehicle: saline
  T/C: 121 % of control
dose: 29.0 mg/kg/injection, schedule: Q01DX001 (ip), vehicle: carboxymethylcellulose (CMC)
  T/C: 122 % of control
dose: 29.0 mg/kg/injection, schedule: Q01DX001 (ip), vehicle: other
  T/C: 109 % of control
dose: 30.0 mg/kg/injection, schedule: Q01DX001 (ip), vehicle: carboxymethylcellulose (CMC)
  T/C: 116 % of control and 118 % of control
dose: 30.0 mg/kg/injection, schedule: Q## X004 (ip), vehicle: carboxymethylcellulose (CMC)
  T/C: 113 % of control and 115 % of control
dose: 32.0 mg/kg/injection, schedule: Q01DX Z (sc), vehicle: carboxymethylcellulose (CMC)
  T/C: 185 % of control
dose: 33.7 mg/kg/injection, schedule: Q01DX010 (ip), vehicle: other
  T/C: 167 % of control
dose: 39.0 mg/kg/injection, schedule: Q01DX015 (ip), vehicle: carboxymethylcellulose (CMC)
  T/C: 119 % of control
dose: 39.0 mg/kg/injection, schedule: Q02DX008 (ip), vehicle: carboxymethylcellulose (CMC)
  T/C: 184 % of control and 192 % of control
dose: 39.0 mg/kg/injection, schedule: Q02DX010 (ip), vehicle: other
  T/C: 167 % of control
dose: 40.0 mg/kg/injection, schedule: Q01DX001 (ip), vehicle: saline
  T/C: 106 % of control
dose: 42.0 mg/kg/injection, schedule: Q01DX001 (ip), vehicle: carboxymethylcellulose (CMC)
  T/C: 122 % of control
dose: 42.0 mg/kg/injection, schedule: Q01DX001 (ip), vehicle: other
  T/C: 117 % of control
dose: 44.0 mg/kg/injection, schedule: Q01DX001 (ip), vehicle: carboxymethylcellulose (CMC)
  T/C: 113 % of control
dose: 48.0 mg/kg/injection, schedule: Q01DX001 (ip), vehicle: carboxymethylcellulose (CMC)
  T/C: 113 % of control
dose: 48.0 mg/kg/injection, schedule: Q01DX010 (ip), vehicle: water
  T/C: 157 % of control
dose: 48.4 mg/kg/injection, schedule: Q01DX001 (ip), vehicle: carboxymethylcellulose (CMC)
  T/C: 104 % of control
dose: 50.0 mg/kg/injection, schedule: Q01DX010 (sc), vehicle: olive oil, sesame oil, peanut oil
  T/C: 123 % of control
dose: 50.0 mg/kg/injection, schedule: Q01DX015 (ip), vehicle: carboxymethylcellulose (CMC)
  T/C: 100 % of control and 124 % of control
dose: 50.0 mg/kg/injection, schedule: Q02DX004 (im), vehicle: olive oil, sesame oil, peanut oil
  T/C: 156 % of control
dose: 53.6 mg/kg/injection, schedule: Q## X032 (ip), vehicle: carboxymethylcellulose (CMC)
  T/C: 162 % of control
dose: 54.0 mg/kg/injection, schedule: Q02DX010 (ip), vehicle: carboxymethylcellulose (CMC)
  T/C: 181 % of control
dose: 54.0 mg/kg/injection, schedule: Q02DX010 (ip), vehicle: other
  T/C: 157 % of control
dose: 54.0 mg/kg/injection, schedule: Q## X032 (ip), vehicle: carboxymethylcellulose (CMC)
  T/C: 153 % of control
dose: 56.0 mg/kg/injection, schedule: Q01DX009 (ip), vehicle: Klucel (hydroxypropylcellulose) (HPC)
  T/C: 93 % of control
dose: 56.0 mg/kg/injection, schedule: Q07DX Z (ip), vehicle: saline
  T/C: 123 % of control
dose: 58.5 mg/kg/injection, schedule: Q02DX008 (ip), vehicle: carboxymethylcellulose (CMC)
  T/C: 166 % of control
dose: 58.7 mg/kg/injection, schedule: Q02DX010 (ip), vehicle: carboxymethylcellulose (CMC)
  T/C: 162 % of control
dose: 62.5 mg/kg/injection, schedule: Q01DX010 (oral), vehicle: other
  T/C: 113 % of control
dose: 67.0 mg/kg/injection, schedule: Q## X004 (ip), vehicle: carboxymethylcellulose (CMC)
  T/C: 157 % of control and 161 % of control
dose: 74.0 mg/kg/injection, schedule: Q01DX001 (ip), vehicle: carboxymethylcellulose (CMC)
  T/C: 120 % of control
dose: 80.0 mg/kg/injection, schedule: Q01DX001 (ip), vehicle: saline
  T/C: 119 % of control
dose: 80.0 mg/kg/injection, schedule: Q## X032 (ip), vehicle: carboxymethylcellulose (CMC)
  T/C: 163 % of control and 178 % of control and 188 % of control
dose: 81.0 mg/kg/injection, schedule: Q02DX010 (ip), vehicle: carboxymethylcellulose (CMC)
  T/C: 106 % of control
dose: 96.0 mg/kg/injection, schedule: Q01DX001 (ip), vehicle: carboxymethylcellulose (CMC)
  T/C: 156 % of control
dose: 96.0 mg/kg/injection, schedule: Q01DX001 (ip), vehicle: other
  T/C: 162 % of control
dose: 100.0 mg/kg/injection, schedule: Q01DX010 (sc), vehicle: olive oil, sesame oil, peanut oil
  T/C: 93 % of control
dose: 112.0 mg/kg/injection, schedule: Q07DX Z (ip), vehicle: saline
  T/C: 121 % of control
dose: 120.0 mg/kg/injection, schedule: Q## X032 (ip), vehicle: carboxymethylcellulose (CMC)
  T/C: 180 % of control and 181 % of control
dose: 125.0 mg/kg/injection, schedule: Q01DX010 (oral), vehicle: other
  T/C: 107 % of control
dose: 180.0 mg/kg/injection, schedule: Q## X032 (ip), vehicle: carboxymethylcellulose (CMC)
  T/C: 94 % of control
dose: 250.0 mg/kg/injection, schedule: Q01DX010 (oral), vehicle: other
  T/C: 111 % of control

## C(=NCC(CCN1CCOCC1)(CCN1CCOCC1)c1cccc2ccccc12)C(CCN1CCOCC1)(CCN1CCOCC1)c1cccc2ccccc12
dose: 25.0 mg/kg/injection, schedule: Q04DX003 (ip), vehicle: saline with Tween-80
  T/C: 90 % of control
dose: 50.0 mg/kg/injection, schedule: Q04DX003 (ip), vehicle: saline with Tween-80
  T/C: 100 % of control
dose: 100.0 mg/kg/injection, schedule: Q04DX003 (ip), vehicle: saline with Tween-80
  T/C: 89 % of control

## O=[N+]([O-])c1cc(Br)cc2c1nc(NCCCO)c1ccccc12
dose: 100.0 mg/kg/injection, schedule: Q04DX003 (ip), vehicle: Klucel (hydroxypropylcellulose) (HPC)
  T/C: 103 % of control
dose: 200.0 mg/kg/injection, schedule: Q04DX003 (ip), vehicle: Klucel (hydroxypropylcellulose) (HPC)
  T/C: 109 % of control
dose: 400.0 mg/kg/injection, schedule: Q04DX003 (ip), vehicle: Klucel (hydroxypropylcellulose) (HPC)
  T/C: 109 % of control
